Earlier results as cited in US6780436B1, “Solid oral pharmaceutical formulation of modified release that contains an acid labile benzimidazole compound” (Laboratorios Del Dr. Esteve, SA, priority 1999, dated 2004).

Details: hard gelatin capsules that contain omeprazole pellets with enteric coating; stated 'in general' in the background

time of peak plasma concentration after administration: 2 h
SMILES: COc1ccc2[nH]c([S+]([O-])Cc3ncc(C)c(OC)c3C)nc2c1 (stereo not shown) [omeprazole, 5-methoxy-2[[(4-methoxy-3,5-dimethyl-2-pyridinyl)methyl]sulphinyl]-1H-benzimidazole]
